13 compounds from ChEMBL document CHEMBL1128617, “4-Deoxy-4-aminoavermectins with potent broad spectrum antiparasitic activities” (1995) can be followed below.

What all share (format): functional
The test system of assay [1] is Oesophagostomum columbianum. In words: Antiparasitic activity against Oesophagostomum columbianum at dose of 0.05 mg/kg in sheep anthelmintic test.
Assay [2] relates to Teladorsagia circumcincta. In words: Antiparasitic activity against Ostertagia circumcincta at dose of 0.05 mg/kg in sheep anthelmintic test.
The subject of assay [3] is Trichostrongylus axei. In words: Antiparasitic activity against Trichostrongylus axei at dose of 0.05 mg/kg in sheep anthelmintic test.
The test system of assay [4] is Cooperia oncophora. The experiment in a line: Antiparasitic activity against Cooperia oncophora at dose of 0.05 mg/kg in sheep anthelmintic test.
The test system of assay [5] is Haemonchus contortus. The experiment in a line: Antiparasitic activity against Haemonchus contortus at dose of 0.05 mg/kg in sheep anthelmintic test.
Assay [6] relates to Trichostrongylus colubriformis. In words: Antiparasitic activity against Trichostrongylus colubriformis at dose of 0.05 mg/kg in sheep anthelmintic test.
In the next assay the test system is Artemia. In words: In vitro antiparasitic activity in brine shrimp assay.
Assay [7] relates to Cooperia. The experiment in a line: Antiparasitic activity against Cooperia […] at dose of 0.05 mg/kg in sheep anthelmintic test.
Assay [8] concerns Ovis aries. In words: Antiparasitic activity against Haemonchus contortus at dose of 0.20 mg/kg in sheep anthelmintic test. The settings on record: dose 0.2 mg/kg.
Assay [9] has as its system Ovis aries. In words: Antiparasitic activity against Oesophagostomum columbianum at dose of 0.20 mg/kg in sheep anthelmintic test. The settings on record: dose 0.2 mg/kg.
In assay [10] the test system is Ovis aries. The experiment in a line: Antiparasitic activity against Ostertagia circumcincta at dose of 0.20 mg/kg in sheep anthelmintic test. The settings on record: dose 0.2 mg/kg.
For assay [11], the system named is Ovis aries. In words: Antiparasitic activity against Cooperia oncophora at dose of 0.20 mg/kg in sheep anthelmintic test. Particulars: dose 0.2 mg/kg.
Assay [12] relates to Ovis aries. The experiment in a line: Antiparasitic activity against Cooperia […] at dose of 0.20 mg/kg in sheep anthelmintic test. Particulars: dose 0.2 mg/kg.
Assay [13] has as its system Ovis aries. The experiment in a line: Antiparasitic activity against Trichostrongylus axei at dose of 0.20 mg/kg in sheep anthelmintic test. The settings on record: dose 0.2 mg/kg.
Assay [14] has as its system Ovis aries. In words: Antiparasitic activity against Trichostrongylus colubriformis at dose of 0.20 mg/kg in sheep anthelmintic test. Particulars: dose 0.2 mg/kg.
Assay [15] relates to Oesophagostomum columbianum. In words: Antiparasitic activity against Oesophagostomum columbianum at dose of 0.10 mg/kg in sheep anthelmintic test.
The subject of assay [16] is Teladorsagia circumcincta. The experiment in a line: Antiparasitic activity against Ostertagia circumcincta at dose of 0.10 mg/kg in sheep anthelmintic test.
Assay [17] deals with Cooperia oncophora. The experiment in a line: Antiparasitic activity against Cooperia oncophora at dose of 0.10 mg/kg in sheep anthelmintic test.
The subject of assay [18] is Haemonchus contortus. The experiment in a line: Antiparasitic activity against Haemonchus contortus at dose of 0.10 mg/kg in sheep anthelmintic test.
Assay [19] concerns Cooperia. In words: Antiparasitic activity against Cooperia […] at dose of 0.10 mg/kg in sheep anthelmintic test. Particulars: dose 0.1 mg/kg.
In assay [20] the test system is Trichostrongylus axei. In words: Antiparasitic activity against Trichostrongylus axei at dose of 0.10 mg/kg in sheep anthelmintic test.
The subject of assay [21] is Trichostrongylus colubriformis. In words: Antiparasitic activity against Trichostrongylus colubriformis at dose of 0.10 mg/kg in sheep anthelmintic test.

`CCC(C)[C@H]1O[C@]2(C=C[C@@H]1C)C[C@@H]1C[C@@H](C/C=C(\C)[C@@H](O[C@H]3C[C@H](OC)[C@@H](O[C@H]4C[C@H](OC)[C@H](N(C)C(C)=O)[C@H](C)O4)[C@H](C)O3)[C@@H](C)/C=C/C=C3\CO[C@@H]4[C@H](O)C(C)=C[C@@H](C(=O)O1)[C@]34O)O2` (stereo partly drawn): the Reduction (in [1]; in [2]; with Trichostrongylus axei [3]; in the assay with Cooperia oncophora [4]; in the assay on Haemonchus contortus [5]; in assay [6]) was over 95% in each case. In the assay on Cooperia [7], this compound came in with a Reduction of over 95%. In the assay on Artemia, this compound had an IC100 of 650 ng/mL.
On to `CCC(C)[C@H]1O[C@]2(C=C[C@@H]1C)C[C@@H]1C[C@@H](C/C=C(\C)[C@@H](O[C@H]3C[C@H](OC)[C@@H](O[C@H]4C[C@H](OC)[C@H](NCc5ccccc5)[C@H](C)O4)[C@H](C)O3)[C@@H](C)/C=C/C=C3\CO[C@@H]4[C@H](O)C(C)=C[C@@H](C(=O)O1)[C@]34O)O2` (stereo partly drawn), for which the Reduction with Ovis aries [8] is reported as over 95%; in the assay on Ovis aries [9], over 95%; in the assay on Ovis aries [10], over 95%; in the assay on Ovis aries [11], over 95%; with Ovis aries [12], over 95%; with Ovis aries [13], under 50%. In the assay with Ovis aries [14], this compound gave a Reduction of over 95%. For the same compound, the IC100 in the assay with Artemia is over 55500 ng/mL.
For `CCC(C)[C@H]1O[C@]2(C=C[C@@H]1C)C[C@@H]1C[C@@H](C/C=C(\C)[C@@H](O[C@H]3C[C@H](OC)[C@@H](O[C@H]4C[C@H](OC)[C@H](/N=C/N(C)C)[C@H](C)O4)[C@H](C)O3)[C@@H](C)/C=C/C=C3\CO[C@@H]4[C@H](O)C(C)=C[C@@H](C(=O)O1)[C@]34O)O2` (stereo partly drawn), the Reduction in [15] (dose 0.1 mg/kg) is given as over 95%; in [16] (dose 0.1 mg/kg), over 95%; in the assay on Cooperia oncophora [17] (dose 0.1 mg/kg), under 50%; in the assay with Haemonchus contortus [18] (dose 0.1 mg/kg) it was over 95%; with Cooperia [19] it was 76%; in the assay on Trichostrongylus axei [20] (dose 0.1 mg/kg) it was 51%. Also, in [21] (dose 0.1 mg/kg), the Reduction was under 50%. In the assay on Artemia, this compound registered an IC100 of 870 ng/mL.
`CCC(C)[C@H]1O[C@]2(C=C[C@@H]1C)C[C@@H]1C[C@@H](C/C=C(\C)[C@@H](O[C@H]3C[C@H](OC)[C@@H](O[C@H]4C[C@@H](OC)[C@@H](NC(C)=O)[C@H](C)O4)[C@H](C)O3)[C@@H](C)/C=C/C=C3\CO[C@@H]4[C@H](O)C(C)=C[C@@H](C(=O)O1)[C@]34O)O2` (stereo partly drawn): the Reduction is recorded as over 95% in [1]; over 95% in [2]; over 95% in the assay on Trichostrongylus axei [3]; 76% in the assay on Cooperia oncophora [4]; over 95% with Haemonchus contortus [5]; over 95% in [6]. The same compound yielded a Reduction with Cooperia [7] of under 50%. This compound also showed an IC100 in the assay with Artemia of 430 ng/mL.
`CCC(=O)N[C@@H]1[C@H](C)O[C@@H](O[C@H]2[C@H](C)O[C@@H](O[C@@H]3/C(C)=C/C[C@@H]4C[C@@H](C[C@]5(C=C[C@H](C)[C@@H](C(C)CC)O5)O4)OC(=O)[C@@H]4C=C(C)[C@@H](O)[C@H]5OC/C(=C\C=C\[C@@H]3C)[C@]54O)C[C@@H]2OC)C[C@@H]1OC` (stereo partly drawn): the Reduction (in assay [1]; in [2]; in the assay on Trichostrongylus axei [3]; in the assay on Cooperia oncophora [4]; in the assay on Haemonchus contortus [5]; in [6]) was over 95% each time. The Reduction in the assay on Cooperia [7] is over 95%. Besides, the IC100 in the assay on Artemia was 430 ng/mL.
On to `CCC(C)[C@H]1O[C@]2(CC(O)[C@@H]1C)C[C@@H]1C[C@@H](C/C=C(\C)[C@@H](O[C@H]3C[C@H](OC)[C@@H](O[C@H]4C[C@H](OC)[C@H](NC(C)=O)[C@H](C)O4)[C@H](C)O3)[C@@H](C)/C=C/C=C3\CO[C@@H]4[C@H](O)C(C)=C[C@@H](C(=O)O1)[C@]34O)O2` (stereo partly drawn), for which the Reduction is over 95% in assay [15] (dose 0.1 mg/kg); over 95% in assay [16] (dose 0.1 mg/kg); over 95% in the assay on Cooperia oncophora [17] (dose 0.1 mg/kg); under 50% with Haemonchus contortus [18] (dose 0.1 mg/kg); 76% in the assay with Cooperia [19]; over 95% with Trichostrongylus axei [20] (dose 0.1 mg/kg). This compound also showed a Reduction in assay [21] (dose 0.1 mg/kg) of over 95%. Also, the IC100 with Artemia was determined as 870 ng/mL.
Regarding `CCC(C)[C@H]1O[C@]2(C=C[C@@H]1C)C[C@@H]1C[C@@H](C/C=C(\C)[C@@H](O[C@H]3C[C@H](OC)[C@@H](O[C@H]4C[C@H](OC)[C@H](NS(C)(=O)=O)[C@H](C)O4)[C@H](C)O3)[C@@H](C)/C=C/C=C3\CO[C@@H]4[C@H](O)C(C)=C[C@@H](C(=O)O1)[C@]34O)O2` (stereo partly drawn), the Reduction (in [1]; in assay [2]; with Trichostrongylus axei [3]; in the assay with Cooperia oncophora [4]; with Haemonchus contortus [5]; in assay [6]) was over 95% each time. In the assay on Cooperia [7], this compound gave a Reduction of over 95%. Besides, in the assay on Artemia, the IC100 came to 430 ng/mL.
For the compound IVERMECTIN, the Reduction (in [15]; in [16]; in the assay on Cooperia oncophora [17]; with Haemonchus contortus [18]; in the assay on Trichostrongylus axei [20]; in assay [21]) was over 95% throughout. For the same compound, in the assay on Artemia, the IC100 came to 430 ng/mL.
As to `CCC(C)[C@H]1O[C@]2(C=C[C@@H]1C)C[C@@H]1C[C@@H](C/C=C(\C)[C@@H](O[C@H]3C[C@H](OC)[C@@H](O[C@H]4C[C@H](OC)[C@H](NN(C)C)[C@H](C)O4)[C@H](C)O3)[C@@H](C)/C=C/C=C3\CO[C@@H]4[C@H](O)C(C)=C[C@@H](C(=O)O1)[C@]34O)O2` (stereo partly drawn), the Reduction (in [15] (dose 0.1 mg/kg); in assay [16] (dose 0.1 mg/kg); in the assay with Cooperia oncophora [17] (dose 0.1 mg/kg); in the assay on Haemonchus contortus [18] (dose 0.1 mg/kg); with Cooperia [19]; in the assay on Trichostrongylus axei [20] (dose 0.1 mg/kg)) was over 95% in each case. The Reduction in assay [21] (dose 0.1 mg/kg) is on record as over 95%. Moreover, in the assay on Artemia, the IC100 was found to be 430 ng/mL.
Turning to `CCC(C)[C@H]1O[C@]2(C=C[C@@H]1C)C[C@@H]1C[C@@H](C/C=C(\C)[C@@H](O[C@H]3C[C@H](OC)[C@@H](O[C@H]4C[C@H](OC)[C@@H](NC(C)=O)[C@H](C)O4)[C@H](C)O3)[C@@H](C)/C=C/C=C3\CO[C@@H]4[C@H](O)C(C)=C[C@@H](C(=O)O1)[C@]34O)O2` (stereo partly drawn), the Reduction in assay [1] is listed as over 95%; in assay [2], under 50%; in the assay with Trichostrongylus axei [3], over 95%; in the assay with Cooperia oncophora [4] it was over 95%; with Haemonchus contortus [5] it was over 95%; in assay [6], under 50%. In the assay with Cooperia [7], this compound showed a Reduction of 76%. For the same compound, the IC100 in the assay on Artemia is 325 ng/mL.
As to `CCC(C)[C@H]1O[C@]2(C=C[C@@H]1C)C[C@@H]1C[C@@H](C/C=C(\C)[C@@H](O[C@H]3C[C@H](OC)[C@@H](O[C@H]4C[C@H](OC)[C@H](NC=O)[C@H](C)O4)[C@H](C)O3)[C@@H](C)/C=C/C=C3\CO[C@@H]4[C@H](O)C(C)=C[C@@H](C(=O)O1)[C@]34O)O2` (stereo partly drawn), the Reduction (in assay [1]; in assay [2]; in the assay on Trichostrongylus axei [3]; in the assay on Cooperia oncophora [4]; in the assay with Haemonchus contortus [5]; in assay [6]) was over 95% throughout. In the assay on Cooperia [7], this compound showed a Reduction of over 95%. For the same compound, the IC100 with Artemia came out at 380 ng/mL.
For the compound `CCC(C)[C@H]1O[C@]2(CC[C@@H]1C)C[C@@H]1C[C@@H](C/C=C(\C)[C@@H](O[C@H]3C[C@H](OC)[C@@H](O[C@H]4C[C@H](OC)[C@H](NC(C)=O)[C@H](C)O4)[C@H](C)O3)[C@@H](C)/C=C/C=C3\CO[C@@H]4[C@H](O)C(C)=C[C@@H](C(=O)O1)[C@]34O)O2` (stereo partly drawn), the Reduction (in [15] (dose 0.1 mg/kg); in [16] (dose 0.1 mg/kg); with Cooperia oncophora [17] (dose 0.1 mg/kg); in the assay on Haemonchus contortus [18] (dose 0.1 mg/kg); in the assay on Cooperia [19]; in the assay with Trichostrongylus axei [20] (dose 0.1 mg/kg)) was over 95% in each case. The compound further showed a Reduction in assay [21] (dose 0.1 mg/kg) of over 95%. In the assay on Artemia, this compound came in with an IC100 of 650 ng/mL.
`CCC(C)[C@H]1O[C@]2(C=C[C@@H]1C)C[C@@H]1C[C@@H](C/C=C(\C)[C@@H](O[C@H]3C[C@H](OC)[C@@H](O[C@H]4C[C@H](OC)[C@H](NC(=O)OC)[C@H](C)O4)[C@H](C)O3)[C@@H](C)/C=C/C=C3\CO[C@@H]4[C@H](O)C(C)=C[C@@H](C(=O)O1)[C@]34O)O2` (stereo partly drawn): the Reduction (in assay [15] (dose 0.1 mg/kg); in assay [16] (dose 0.1 mg/kg); in the assay with Cooperia oncophora [17] (dose 0.1 mg/kg); in the assay on Haemonchus contortus [18] (dose 0.1 mg/kg); in the assay on Cooperia [19]; with Trichostrongylus axei [20] (dose 0.1 mg/kg)) was over 95% each time. Further, the Reduction in assay [21] (dose 0.1 mg/kg) is given as over 95%. This compound also yielded an IC100 with Artemia of 430 ng/mL.
